# Values quoted from earlier work as cited in patent US6825217B2, “Carbinols for the treatment of neuropathic dysfunction” (Endo Pharmaceuticals, Inc., priority 2001, dated 2004).
# Conditions: rat, in vivo; cited from earlier work
smiles,measurement,value
CSCC[C@@H]1NC(=O)[C@H](CC(C)C)NC(=O)[C@H](CCCNC(=N)N)NC(=O)[C@H](CO)NC(=O)[C@@H]2CSSC[C@@H]3NC(=O)[C@H](CO)NC(=O)CNC(=O)[C@H]([C@@H](C)O)NC(=O)[C@H](CSSC[C@H](N)C(=O)N[C@@H](CCCCN)C(=O)NCC(=O)N[C@@H](CCCCN)C(=O)NCC(=O)N[C@@H](C)C(=O)N[C@@H](CCCCN)C(=O)N2)NC(=O)[C@H](CSSC[C@@H](C(N)=O)NC(=O)[C@H](CCCCN)NC(=O)CNC(=O)[C@H](CO)NC(=O)[C@H](CCCNC(=N)N)NC3=O)NC(=O)[C@H](CC(=O)O)NC(=O)[C@H](Cc2ccc(O)cc2)NC1=O [SNX-111],duration of reduction of heat hyperalgesia and mechanical allodynia,at least three hours
same,heat hyperalgesia,reduced
same,mechanical allodynia,reduced
same,mechanical hyperalgesia,no effect
same,"responses to sensory stimuli, thermal or mechanical",no effect
